From a compilation of properties of binary mixtures (doi:10.1021/je300108z)

Experiment: xn = mol fraction of the nth substance listed
Details: 101 kPa

CCCCCCCCCCCC[N+](CC)(CC)CC.O=S(=O)([N-]S(=O)(=O)C(F)(F)F)C(F)(F)F + O
viscosity (302.95 K, x2 = 0.1238): 97.2 mPa·s
viscosity (308.05 K, x2 = 0.1238): 76.6 mPa·s
viscosity (313.05 K, x2 = 0.1238): 60.7 mPa·s
viscosity (318.05 K, x2 = 0.1238): 48.8 mPa·s
viscosity (322.95 K, x2 = 0.1238): 39.19 mPa·s

CCCCCCCC[N+](CC)(CC)CC.O=S(=O)([N-]S(=O)(=O)C(F)(F)F)C(F)(F)F + O
viscosity (293.25 K, x2 = 0.1442): 107.8 mPa·s
viscosity (298.05 K, x2 = 0.1442): 88.1 mPa·s
viscosity (303.05 K, x2 = 0.1442): 69.8 mPa·s
viscosity (313.05 K, x2 = 0.1442): 45.09 mPa·s

CCCCCC[N+](CC)(CC)CC.O=S(=O)([N-]S(=O)(=O)C(F)(F)F)C(F)(F)F + O
viscosity (298.05 K, x2 = 0.1618): 66.7 mPa·s
viscosity (303.05 K, x2 = 0.1618): 54 mPa·s
viscosity (313.05 K, x2 = 0.1618): 36.49 mPa·s
viscosity (318.05 K, x2 = 0.1618): 30.73 mPa·s
viscosity (322.95 K, x2 = 0.1618): 25.98 mPa·s
